Laboratory results reported in patent US20240254072A1, “DERIVATIVES OF CANNABIDIOL-C4 FOR THE TREATMENT OF EPILEPSY” (priority 2021, published 2024).
Values joined by “and” are separate entries in the source; they are usually repeats but may differ in a detail not shown here. Identical values can stand only once. Like-named read-outs stand apart in the source and are kept apart here.

Key:
[1] = test system: Maximal Electroshock generalised seizures; conditions: data of EP3160457 / WO 2020/104796; cited from earlier work
[2] = range of toxicology screens, WO 2020/104796; cited from earlier work
[3] = test system: pentylenetetrazole-induced generalised seizures; conditions: data of EP3160457; cited from earlier work
[4] = test system: inflammation; conditions: WO 01/95899; cited from earlier work
[5] = test system: tonic hind limb extensor convulsions induced by electroshock (generalised seizure); assay: mini-MEST (maximal electroshock seizure threshold) test in the mouse; conditions: for CC50 +/- SEM (current producing tonic hind limb extension in 50% of animals) / % change from vehicle (CC50): mouse, i.p., 30 min post dose, diazepam 2.5 mg/kg, Compound I 100 mg/kg, Compound II 150 mg/kg; for CC50 +/- SEM (current producing tonic hind limb extension in 50% of animals): N=6
Description: The maximal electroshock seizure threshold (MEST) test is widely utilized preclinically to evaluate pro- or anti-convulsant properties of test compounds (Loscher et al., 1991).
In the MEST test the ability of a drug to alter the seizure threshold current required to induce hind limb tonic extensor convulsions is measured according to an “up and down” method of shock titration (Kimball et al., 1957). An increase in seizure threshold is indicative of anti-convulsant effect.
The ability of a test compound to alter the stimulus intensity, expressed as current (mA), required to induce the presence of tonic hind limb extensor convulsions, is assessed in the MEST.
Naïve mice were acclimatised to the procedure room in their home cages for up to 7 days, with food and water available ad libitum.
All animals were weighed at the beginning of the study and randomly assigned to treatment groups based on a mean distribution of body weight across groups.
The first animal within a treatment group was given a shock at the expected or estimated CC50 current. For subsequent animals, the current was lowered or raised depending on the convulsions outcome from the preceding animal in log scale intervals.
Data generated from each treatment group were used to calculate the CC50±SEM values for the treatment group.
Vehicle: (5% ethanol, 10% solutol in 85% Saline) was prepared as follows: 1 mL of ethanol, 2 mL of solutol were warmed to 60° ° C., in 17 mL of saline (1:2:17).
The test compounds, described herein as Compound I and Compound II, are as shown as Formula I and Formula II respectively. Test compounds were administered at 100 mg/kg (i.p.) for Compound I and 150 mg/kg (i.p.) for Compound II in a 1:2:17 ethanol:solutol:0.9% saline formulation.
The data for each treatment group were recorded as the number of +'s and 0's at each current level employed and this information is then used to calculate the CC50 value (current required for 50% of the animals to show seizure behaviour)±standard error.
Test compound effects were also calculated as percentage change in CC50 from the vehicle control group.
Significant difference between drug-treated animals and controls were assessed according to Litchfield and Wilcoxon (1949).

[6] = Bioanalysis of plasma and brain concentrations by UPLC-MS/MS; format: in vivo, mice; conditions: mouse, i.p., 30 min post-dose, Compound I 100 mg/kg, Compound II 150 mg/kg; for Brain concentration / Brain concentration at 30 min: Location Brain; for Plasma Conc. (individual animal) / concentration at 30 min: Location Plasma; for Brain concentration at 30 min / concentration at 30 min: in vivo
Description: Each animal was humanely killed immediately after production of a convulsion by destruction of the brain from striking the cranium, followed by the confirmation of permanent cessation of the circulation from decapitation under The Humane Killing of Animals under Schedule 1 to the Animals (Scientific Procedures) Act 1986. Terminal blood and brain collection were performed following decapitation.
Blood was collected in Lithium-heparin tubes and centrifuged at 4 °C for 10 minutes at 1500× g. The resulting plasma was removed (>100 μL) and split into 2 aliquots of 0.5 mL Eppendorf tubes containing 10 μL of ascorbic acid (100 mg/mL) for stabilisation. Brains were removed, washed in saline and halved. Each half was placed into separate 2 mL screw cap cryovials, weighed and frozen on cardice.
Bioanalysis experiments were carried out to determine the quantitative measurement of Compound I and Compound II in plasma and brain.
Six mice were dosed with Compound I at 100 mg/kg and another six with Compound II at 150 mg/kg via intraperitoneal (i.p) injection. Sample analysis was performed 30 min post-dose using a sample volume of 40 μL. Following addition of internal standard (in acetonitrile) and Isopropanol samples were protein precipitated by addition of acetonitrile. Samples were centrifuged and supernatant transferred to a clean 96-well plate (with addition of Tween to minimise non-specific binding to plate materials), evaporated to dryness then reconstituted in suitable solvent. The extracts quantified by ultraperformance liquid chromatography-tandem mass spectrometry (UPLC-MS/MS).

[7] = read-out: Mean Plasma Conc., Location Brain
[8] = read-out: Plasma Conc., Location Brain (individual animal)
[9] = read-out: Plasma Conc. (individual animal)

| SMILES | anticonvulsant effect in MES model [1] | anticonvulsant effect in PTZ model [3] | CC50 +/- SEM (current producing tonic hind limb extension in 50% of animals) [5] | Brain concentration [6] | Plasma Conc. (individual animal) [6] | Brain concentration at 30 min [6, 7] | Brain concentration at 30 min [6, 8] | concentration at 30 min ([6]; read-out: Mean Plasma Conc.) | concentration at 30 min [6, 9] | % change from vehicle (CC50) [5] | other results |
| --- | --- | --- | --- | --- | --- | --- | --- | --- | --- | --- | --- |
| C=C(C)[C@@H]1CCC(C)=C[C@H]1c1c(O)cc(CCCC)cc1O [CBD-C4, Cannabidiol-C4] | Therapeutic efficacy was shown | – | – | – | – | – | – | – | – | – | toxicology [2]: acceptable toxicology |
| C=C(C)[C@@H]1CCC(CO)=C[C@H]1c1c(O)cc(CCCCC)cc1O [Compound 7-OH-CBD, 7-hydroxy-cannabidiol] | anticonvulsant effects | anticonvulsant effects | – | – | – | – | – | – | – | – | effect in model of inflammation [4]: found to be effective |
| C=C(C)[C@@H]1CCC(CO)=C[C@H]1c1c(O)cc(CCC)cc1O [Compound 7-OH-CBDV, 7-hydroxy-cannabidivarin] | anticonvulsant effects | anticonvulsant effects | – | – | – | – | – | – | – | – | – |
| C=C(C)[C@@H]1CCC(CO)=C[C@H]1c1c(O)cc(CCCC)cc1O [Compound I, (1′R,2′R)-4-butyl-5′-(hydroxymethyl)-2′-(prop-1-en-2-yl)-1′,2′,3′,4′-tetrahydro-[1,1′-biphenyl]-2,6-diol] | – | – | >131 mA | 122.248 µM and 113.886 µM and 107.349 µM and 125.595 µM and 129.784 µM | 252.278 µM and 248.66 µM and 242.732 µM | 122 µM | 131 µM | 251 µM | 264 µM | – | occurrence of tonic hindlimb convulsions in treatment group ([5]; Compound I 100 mg/kg i.p., 30 min, 6 animals): did not have any convulsions |
| C=C(C)[C@@H]1CCC(C(=O)O)=C[C@H]1c1c(O)cc(CCCC)cc1O [Compound II, (1R,6R)-4′-butyl-2′,6′-dihydroxy-6-(prop-1-en-2-yl)-1,4,5,6-tetrahydro-[1,1′-biphenyl]-3-carboxylic acid] | – | – | <43 mA | 22.356 µM and 22.956 µM and 15.408 µM and 23.332 µM and 19.363 µM | 856.643 µM and 1008.984 µM and 1144.841 µM and 1209.706 µM and 1141.405 µM | 19.8 µM | 15.7 µM | 1050 µM | 960 µM | <72% | – |
| CN1C(=O)CN=C(c2ccccc2)c2cc(Cl)ccc21 [Diazepam, diazepam, reference compound] | – | – | – | – | – | – | – | – | – | 291% | – |
